According to PMC4409382, “Structural Analysis of the 14-3-3ζ/Chibby Interaction Involved in Wnt/β-Catenin Signaling” (PLoS ONE, 2015):
Square brackets hold non-standard residues; d marks the D form. Ends that are not written are not given here. Peptide text beside a SMILES is read from it. pS = N[C@@H](COP(=O)(O)O)C(=O)O

T1: 14-3-3ζ (Homo sapiens, UniProt P63104)
T1 construct: Both full-length 14-3-3ζ and 14-3-3ζΔC12 were expressed as N-terminally His-tagged protein; His tag (TEV-cleavable) (N, cleaved yes); made in house; host or cells: Escherichia coli BL21 (DE3) pLysS
T1 sequence (P63104 1-245): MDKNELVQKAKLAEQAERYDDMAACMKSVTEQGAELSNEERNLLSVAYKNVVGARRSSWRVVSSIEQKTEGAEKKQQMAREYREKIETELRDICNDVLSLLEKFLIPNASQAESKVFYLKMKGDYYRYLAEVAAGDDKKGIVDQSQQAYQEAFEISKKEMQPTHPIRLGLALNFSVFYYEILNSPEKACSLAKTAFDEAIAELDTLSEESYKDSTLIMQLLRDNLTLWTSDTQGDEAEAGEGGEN

T2: 14-3-3ζ (human, full-length) (human, UniProt P63104 1-245)
T2 construct: N-terminal glycine retained after TEV cleavage of the His tag; 14-3-3ζ, human, ORF bought from GeneCopoeia, in Gateway pDEST17; full-length; Dimer in the crystal; the ITC stoichiometry counts on the 14-3-3 monomer; also called WT 14-3-3ζ; source: E. coli BL21 (DE3) pLysS, purified (Ni Sepharose, TEV cleavage, second Ni Sepharose pass); not shown: His tag, N-terminal, cleaved
T2 sequence: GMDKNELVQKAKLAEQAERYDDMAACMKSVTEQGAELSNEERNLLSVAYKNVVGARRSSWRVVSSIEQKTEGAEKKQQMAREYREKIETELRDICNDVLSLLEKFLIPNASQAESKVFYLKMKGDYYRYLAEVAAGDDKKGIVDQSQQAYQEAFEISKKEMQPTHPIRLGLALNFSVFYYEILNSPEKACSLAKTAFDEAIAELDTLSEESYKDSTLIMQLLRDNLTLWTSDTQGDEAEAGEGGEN

B1: pCby 7-mer (peptide)
peptide: Ac-RKSA[pS]LS-NH2
SMILES: CC(=O)N[C@@H](CCCNC(=N)N)C(=O)N[C@@H](CCCCN)C(=O)N[C@@H](CO)C(=O)N[C@@H](C)C(=O)N[C@@H](COP(=O)(O)O)C(=O)N[C@@H](CC(C)C)C(=O)N[C@@H](CO)C(N)=O
notes: also called 16RKSA(pS)LS22; pCby WT 7-mer; source: synthetic peptide, bought: TUFTS University Core Facility
B2: pCby S22P 7-mer (peptide)
peptide: Ac-RKSA[pS]LP-NH2
SMILES: CC(=O)N[C@@H](CCCNC(=N)N)C(=O)N[C@@H](CCCCN)C(=O)N[C@@H](CO)C(=O)N[C@@H](C)C(=O)N[C@@H](COP(=O)(O)O)C(=O)N[C@@H](CC(C)C)C(=O)N1CCC[C@H]1C(N)=O
notes: Chibby (Cby), human, residues 16-22 with S22P; also called Cby 7-mer S22P; 16RKSA(pS)LP22; source: synthetic peptide, bought: TUFTS University Core Facility
B3: pCby S22P 13-mer (peptide)
peptide: KTPPRKSA[pS]LPNL
notes: Chibby (Cby), human, residues 12-24 with S22P; free NH2 and COOH ends; also called Cby 13-mer S22P; source: synthetic peptide, bought: TUFTS University Core Facility
B4: pCby 11-mer (peptide)
peptide: KTPPRKSA[pS]LS-NH2
modifications: N-terminus assumed
SMILES: CC(C)C[C@H](NC(=O)[C@H](COP(=O)(O)O)NC(=O)[C@H](C)NC(=O)[C@H](CO)NC(=O)[C@H](CCCCN)NC(=O)[C@H](CCCNC(=N)N)NC(=O)[C@@H]1CCCN1C(=O)[C@@H]1CCCN1C(=O)[C@@H](NC(=O)[C@@H](N)CCCCN)[C@@H](C)O)C(=O)N[C@@H](CO)C(N)=O
notes: Chibby (Cby), human, residues 12-22; free NH2 end; source: synthetic peptide, bought: TUFTS University Core Facility
B5: Cby 18-mer L24A (phosphorylated) (peptide)
peptide: KTPPRKSA[pS]LSNAHSLDR
notes: Chibby (Cby), human, residues 12-29 with L24A; Not in the methods' list of peptides; also called Cby L24A 18-mer; source: synthetic peptide

Columns and labels:
14-3-3ζ = target: T1, 14-3-3ζ; experiment: ITC of Cby peptides titrated into 14-3-3ζ; format: binding; conditions: for n (binding stoichiometry of monomeric 14-3-3 and Cby peptide): 25°C; for T∆S / ∆G / ∆H / TΔS / ΔG / ΔH: 298.15 K; for T∆S / ∆G / ∆H: duplicate set (S1 Table); for TΔS / ΔG / ΔH: pH 6.8, Table 1 set of duplicate experiments
From the text: The human14-3-3ζ ORF purchased from GeneCopoeia was transferred into Gateway pDEST17 vector (Invitrogen). The 14-3-3ζΔC12, where the 12 C-terminal residues were deleted, was then generated from the full-length construct using QuikChange II Site-Directed Mutagenesis Kit (Strategene). Both full-length 14-3-3ζ and 14-3-3ζΔC12 were expressed as N-terminally His-tagged protein in Escherichia coli (E. coli) BL21 (DE3) pLysS in M9 medium. For unlabeled protein, protein expression was induced at an O.D.600 of 0.9 by adding 0.75 mM IPTG at 18°C for 24 h. The ^15N, ^13C, ^2H labeled 14-3-3ζΔC12 was produced by growing E. coli in deuterated M9 medium. Cells adapted to 70% D2O were used to inoculate a 1 L culture of M9 prepared in 100% D2O. Cells were grown at 37°C and overexpression was induced at an O.D.600 of 0.6 with 0.75 mM IPTG. After a 60-h induction at 18°C, the cells were harvested. All 14-3-3ζ constructs used in this study were purified from the crude lysate by affinity chromatography using Ni Sepharose Fast Flow beads (Amersham Biosciences). The tag was then cleaved by overnight incubation with His-tagged tobacco etch virus (TEV) protease at 25°C. The cleaved 14-3-3ζ, which retains an N-terminal glycine, was purified by passing the mixture through Ni Sepharose Fast Flow beads. The final yields for the 14-3-3ζ proteins were ~50 mg per L of M9 media (including deuterated media).
The Cby peptides used in this study were purchased from GenScript USA Inc. and the TUFTS University Core Facility. From GenScript USA Inc.: Cby 13-mer (NH2-^12KTPPRKSASLSNL^24-COOH), Cby S20D 13-mer (NH2-^12KTPPRKSADLSNL^24-COOH), Cby S20E 13-mer (NH2-^12KTPPRKSAELSNL^24-COOH), pCby 13-mer (NH2-^12KTPPRKSApSLSNL^24-COOH) and pCby 18-mer ((NH2-^12KTPPRKSApSLSNLHSLDR^29-COOH). From TUFTS: pCby 7-mer (Ac-^16RKSApSLS^22-NH2), pCby 11-mer (NH2-^12KTPPRKSApSLS^22-NH2), pCby S22P 7-mer (Ac-^16RKSApSLP^22-NH2), pCby S22P 13-mer (NH2-^12KTPPRKSApSLPNL^24-COOH) and pCby S22P 18-mer ([…]). Peptides were dissolved and dialyzed in 50 mM sodium phosphate, 100 mM NaCl at pH 6.8 for ITC and NMR experiments.
ITC experiments were performed on a VP-ITC instrument (MicroCal) at 25°C. The protein and peptide samples were dialyzed into a buffer containing 50 mM sodium phosphate, 100 mM NaCl, 1 mM DTT at pH 6.8 and degassed before the experiments. In a typical experiment, 5 μL aliquots of ~1–2 mM peptide were titrated stepwise into the 1.4 mL sample cell containing ~100–200 μM 14-3-3ζ. The association constant (Ka), molar binding stoichiometry (n) and the binding enthalpy (ΔH), entropy (ΔS) and Gibbs free energy (ΔG) were determined by fitting the binding isotherm to a one-site model with MicroCal Origin7 software. All ITC experiments were performed in duplicate. A duplicate set of thermodynamic derived binding parameters are found in S1 Table. Peptide and protein concentrations were determined from amino acid analysis (Amino Acid Analysis Facility, SickKids, Toronto, ON).

[1] = target: T2, 14-3-3ζ (human, full-length); experiment: ITC; VP-ITC, 25°C; ~1-2 mM peptide titrated in 5 uL aliquots into ~100-200 uM 14-3-3ζ in the cell; 50 mM sodium phosphate, 100 mM NaCl, 1 mM DTT, pH 6.8; one-site model; in duplicate; conditions: both partners purified
[2] = 50 mM sodium phosphate, 100 mM NaCl, 1 mM DTT, pH 6.8, one-site model, Table 1 set of duplicate experiments
[3] = pH 6.8, duplicate set (S1 Table)

| Molecule | n (binding stoichiometry of monomeric 14-3-3 and Cby peptide) (14-3-3ζ; [2]) | n (binding stoichiometry of monomeric 14-3-3 and Cby peptide) (14-3-3ζ; [3]) | T∆S (14-3-3ζ) [kcal/mol] | ∆G (14-3-3ζ) [kcal/mol] | ∆H (14-3-3ζ) [kcal/mol] | TΔS (14-3-3ζ) [kcal/mol] | ΔG (14-3-3ζ) [kcal/mol] | ΔH (14-3-3ζ) [kcal/mol] | greater affinity compared to the Cby 7-mer (fold, in words) (14-3-3ζ) | Kd (14-3-3ζ; 25°C (298.15 K), 50 mM sodium phosphate, 100 mM NaCl, 1 mM DTT, pH 6.8, one-site model, Table 1 set of duplicate experiments) [µM] | Kd [1] [µM] | dH [1] [kcal/mol] | stoichiometry N [1] |
| --- | --- | --- | --- | --- | --- | --- | --- | --- | --- | --- | --- | --- | --- |
| CC(=O)N[C@@H](CCCNC(=N)N)C(=O)N[C@@H](CCCCN)C(=O)N[C@@H](CO)C(=O)N[C@@H](C)C(=O)N[C@@H](COP(=O)(O)O)C(=O)N[C@@H](CC(C)C)C(=O)N1CCC[C@H]1C(N)=O [Cby 7-mer S22P] (Ac-RKSA[pS]LP-NH2) | 1.03 | 1.02 | 1.29 | -7.50 ± 0.02 | -6.21 ± 0.02 | 1.39 | -7.55 ± 0.01 | -6.16 ± 0.01 |  |  |  |  |  |
| CC(=O)N[C@@H](CCCNC(=N)N)C(=O)N[C@@H](CCCCN)C(=O)N[C@@H](CO)C(=O)N[C@@H](C)C(=O)N[C@@H](COP(=O)(O)O)C(=O)N[C@@H](CC(C)C)C(=O)N[C@@H](CO)C(N)=O [Cby 7-mer] (Ac-RKSA[pS]LS-NH2) | 1.01 | 0.94 | 2.20 | -5.90 ± 0.02 | -3.70 ± 0.04 | 2.60 | -5.95 ± 0.03 | -3.35 ± 0.06 |  |  |  |  |  |
| CC(C)C[C@H](NC(=O)[C@H](COP(=O)(O)O)NC(=O)[C@H](C)NC(=O)[C@H](CO)NC(=O)[C@H](CCCCN)NC(=O)[C@H](CCCNC(=N)N)NC(=O)[C@@H]1CCCN1C(=O)[C@@H]1CCCN1C(=O)[C@@H](NC(=O)[C@@H](N)CCCCN)[C@@H](C)O)C(=O)N[C@@H](CO)C(N)=O [Cby 11-mer] (H-KTPPRKSA[pS]LS-NH2) | 0.95 | 0.96 | 3.22 | -6.49 ± 0.02 | -3.27 ± 0.02 | 3.23 | -6.49 ± 0.02 | -3.26 ± 0.02 | more than two-fold | 17.5 ± 0.6 |  |  |  |
| CC(C)C[C@H](NC(=O)[C@H](CC(N)=O)NC(=O)[C@@H]1CCCN1C(=O)[C@H](CC(C)C)NC(=O)[C@H](COP(=O)(O)O)NC(=O)[C@H](C)NC(=O)[C@H](CO)NC(=O)[C@H](CCCCN)NC(=O)[C@H](CCCNC(=N)N)NC(=O)[C@@H]1CCCN1C(=O)[C@@H]1CCCN1C(=O)[C@@H](NC(=O)[C@@H](N)CCCCN)[C@@H](C)O)C(=O)O [Cby 13-mer S22P] (H-KTPPRKSA[pS]LPNL-OH) | 1.06 | 1.02 | 3.33 | -8.03 ± 0.02 | -4.70 ± 0.01 | 3.49 | -8.13 ± 0.02 | -4.64 ± 0.01 |  |  |  |  |  |
| B1 |  |  |  |  |  |  |  |  |  |  | 43.5 | -3.35 ± 0.06 | 1.01 |
| B2 |  |  |  |  |  |  |  |  |  |  | 2.9 | -6.16 ± 0.01 | 1.03 |
| B3 |  |  |  |  |  |  |  |  |  |  | 1.1 | -4.64 ± 0.01 | 1.06 |
| B4 |  |  |  |  |  |  |  |  |  |  | 17.5 | -3.26 ± 0.02 | 0.95 |
| B5 |  |  |  |  |  |  |  |  |  |  | 21.3 | -1.56 ± 0.05 | 0.99 |
